Source: patent publication US7943749B2, “Antimicrobial 2-deoxystreptamine compounds” (Isis Pharmaceuticals, Inc., priority 2004, dated 2011)
Values joined by “and” are separate entries in the source; they are usually repeats but may differ in a detail not shown here. Equal values may be shown once.

How the values were obtained:
E. Coli = assay: MIC, E. Coli; format: cell-based; conditions: 24 h;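 note: minimum inhibitory concentration determined in duplicate in 96-well plates, compounds given in 4% aqueous DMSO, with ampicillin and tetracycline as positive controls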
S. Aureus = assay: MIC, S. Aureus; format: cell-based; conditions: 24 h
[1] = tested on: E. coli S30 bacterial extract (pBestLuc luciferase reporter); assay: Coupled bacterial transcription/translation assay; format: biochemical; conditions: read-out: Trans/trans IC50
Procedure: The DNA template, pBestLuc™ (Promega), is a plasmid containing a reporter gene for firefly luciferase fused to a strong tac promoter and ribosome binding site. Messenger RNA from 1 μg pBestLuc is transcribed and translated in E. coli S30 bacterial extract in the presence or absence of test compound. Compounds are tested in a black 96 well microtiter plate with an assay volume of 35 μL. […] The transcription/translation reaction is incubated for 35 minutes at 37° C. followed by detection of functional luciferase with the addition of 30 μL LucLite™ (Packard). Light output is quantitated on a Packard TopCount.

[2] = tested on: gentamicin sensitive Acinetobacter baumannii #2 from Walter Reed; assay: MIC, A. baumannii WReed 2; format: cell-based; conditions: 24 h
[3] = tested on: K. pneumoniae ATCC (10031); assay: MIC, K. pneumoniae ATCC 10031; format: cell-based; conditions: 24 h
E. coli ATCC (25922) = assay: MIC, E. coli ATCC 25922; format: cell-based; conditions: 24 h
P. aurginosa ATCC(29248) = assay: MIC, P. aurginosa ATCC 29248; format: cell-based; conditions: 24 h
P. aurginosa ATCC(25416) = assay: MIC, P. aurginosa ATCC 25416; format: cell-based; conditions: 24 h
P. vulgaris ATCC(8427) = conditions: 24 h
Procedure: The MIC assays are carried out in 150 μL volume in duplicate in 96-well clear flat-bottom plates. The bacterial suspension from an overnight culture growth in appropriate medium is added to a solution of test compound in 4% DMSO in water. Final bacterial inoculum is approximately 10^5-10^6 CFU/well. […] Both ampicillin and tetracycline are used as antibiotic-positive controls in each screening assay for S. pyogenes, E. coli imp-, E. coli, S. aureus, E. faecalis, K. pneumoniae and P. vulgaris. Ciprofloxacin is used as an antibiotic positive control in each screening assay for P. aeruginosa.
The following compounds were prepared using methods illustrated in the previous examples. The compounds were also examined in standard bacterial assays against E. Coli, S. Aureus, P. aurginosa, K. pneumoniae, P. vulgaris, and A. baumannii to determine activities. Each of the bacterial cultures that are available from ATCC (www.atcc.org) is identified by its ATCC number. A. baumannii is gentamicin sensitive Acinetobacter baumannii #2 from Walter Reed.

S. aureus ATCC(13709) = assay: MIC, S. aureus ATCC 13709; format: cell-based; conditions: 24 h
[4] = target: 16S ribosomal subunit RNA target; assay: Mass spectrometry based binding assay (FTICR), 16S
Procedure: In a typical experiment, 10 μL of an aqueous solution containing 100 mM ammonium acetate buffer, 2.5 or 5 μM of each RNA, and 33% isopropyl alcohol (to aid ion desolvation) was prepared with different concentrations of each ligand or ligand mixture. Samples were introduced into the electrospray ionization source (negative ionization mode) at 1 μL/min and ions were stored for 1 sec in an RF-only hexapole following desolvation. The abundances were integrated from the respective ions for free RNA and the ligand-RNA complex. The primary (1:1 RNA:ligand) and secondary (1:2 complex, if observed). […] The peak ratios were measured at each concentration, then a plot of complex/free RNA versus concentration of ligand added was fitted to a second (or higher) order binding polynomial to determine the KD.

[5] = range between growth and complete inhibition

Row | SMILES | MIC E. Coli. (E. Coli; [5]) | MIC S. Aureus (S. Aureus; [5]) | MIC E. Coli. (E. Coli) | MIC S. Aureus (S. Aureus) | also measured
1 | NCCN(CCN)CCOC1C(OC2C(O)C(N)CC(N)C2OC2OC(CO)C(O)C(O)C2N)OC(CO)C1OC1OC(CN)C(O)C(O)C1N (centres unmarked) [IBIS00560172] | >50 µM | 25 to 50 µM | – | – | –
2 | NCCCNCCOC1C(OC2C(O)C(N)CC(N)C2OC2OC(CO)C(O)C(O)C2N)OC(CO)C1OC1OC(CN)C(O)C(O)C1N (centres unmarked) [IBIS00560175] | 25 to 50 µM and 25 µM | 3 to 6 µM and 3 µM | – | – | IC50 [1]: 0.29 µM
3 | NCC1OC(OC2C(CO)OC(OC3C(O)C(N)CC(N)C3OC3OC(CO)C(O)C(O)C3N)C2OCCNCCCc2ccccc2)C(N)C(O)C1O (centres unmarked) [IBIS00561144] | – | – | 3 to 5 µM | 0.6 to 1.2 µM | –
4 | NCC1OC(OC2C(CO)OC(OC3C(O)C(N)CC(N)C3OC3OC(CO)C(O)C(O)C3N)C2OCCNC23CC4CC(CC(O)(C4)C2)C3)C(N)C(O)C1O (centres unmarked) [IBIS00561195] | – | – | 20 to 40 µM | 1 to 3 µM | –
5 | NCC1OC(OC2C(CO)OC(OC3C(O)C(N)CC(N)C3OC3OC(CO)C(O)C(O)C3N)C2OCCNc2ccccc2)C(N)C(O)C1O (centres unmarked) [IBIS00560932] | – | – | 50 to 100 µM | 6 to 12 µM | –
6 | CC(C)CCCC(C)C1CCC2C3CCC4CC(NCCOC5C(OC6C(O)C(N)CC(N)C6OC6OC(CO)C(O)C(O)C6N)OC(CO)C5OC5OC(CN)C(O)C(O)C5N)CCC4(C)C3CCC12C (centres unmarked) [IBIS00561952] | – | – | >10 µM | 2.5 to 5.0 µM | –
7 | NCC1OC(OC2C(CO)OC(OC3C(O)C(N)CC(N)C3OC3OC(CO)C(O)C(O)C3N)C2OCCNCCc2cc(C(F)(F)F)cc(C(F)(F)F)c2)C(N)C(O)C1O (centres unmarked) [IBIS00561954] | – | – | >10 µM | 2.5 to 5.0 µM | –
8 | NCC1OC(OC2C(CO)OC(OC3C(O)C(N)CC(N)C3OC3OC(CO)C(O)C(O)C3N)C2OCCNCCC2CC3CCC2C3)C(N)C(O)C1O (centres unmarked) [IBIS00561951] | – | – | >10 µM | 5.0 to 10.0 µM | –
9 | NCC1OC(OC2C(CO)OC(OC3C(O)C(N)CC(N)C3OC3OC(CO)C(O)C(O)C3N)C2OCCN(CCCc2ccccc2)CCc2ccccc2)C(N)C(O)C1O (centres unmarked) [IBIS00561969] | – | – | – | – | MIC A. baumannii WReed 2 [2]: 10 to 20 µM; MIC K. pneumoniae ATCC (10031) [3]: 2.5 to 5.0 µM; MIC E. coli ATCC (25922) (E. coli ATCC (25922)): 10 to 20 µM; MIC P. aurginosa ATCC(29248) (P. aurginosa ATCC(29248)): >40 µM; MIC P. aurginosa ATCC(25416) (P. aurginosa ATCC(25416)): 10 to 20 µM; MIC P. vulgaris ATCC(8427) (P. vulgaris ATCC(8427)): 10 to 20 µM; MIC S. aureus ATCC(13709) (S. aureus ATCC(13709)): 0.6 to 1.2 µM
10 | NCC1OC(OC2C(CO)OC(OC3C(O)C(N)CC(N)C3OC3OC(CO)C(O)C(O)C3N)C2OCCNC2CCCCC2)C(N)C(O)C1O (centres unmarked) [IBIS00560931] | – | – | 3 to 6 µM | 3 to 5 µM | –
11 | NCCNCCOC1C(OC2C(O)C(N)CC(N)C2OC2OC(CO)C(O)C(O)C2N)OC(CO)C1OC1OC(CN)C(O)C(O)C1N (centres unmarked) [IBIS00560177] | 6 µM and 6 to 12 µM | 2 µM and 2 to 3 µM | – | – | IC50 [1]: 0.29 µM
12 | NCC1OC(OC2C(CO)OC(OC3C(O)C(N)CC(N)C3OC3OC(CO)C(O)C(O)C3N)C2OCCNC2CCCNC2)C(N)C(O)C1O (centres unmarked) [IBIS00560725] | 1.5-3^ μM | 3 to 6 µM | – | – | IC50 [1]: 0.08 µM; Kd [4]: 0.11 µM
13 | NCC1OC(OC2C(CO)OC(OC3C(O)C(N)CC(N)C3OC3OC(CO)C(O)C(O)C3N)C2OCCNCCCCc2ccccc2)C(N)C(O)C1O (centres unmarked) [IBIS00561145] | – | – | 3 to 5 µM | 0.6 to 1.2 µM | –
